Data on 14 compounds can be found in article PMC12282092, “Discovery of a non-nucleoside inhibitor that binds to a novel site in the palm domain of the respiratory syncytial virus RNA-dependent RNA polymerase” (Journal of Virology, 2025).

One series has as its target T1, RSV L+P (Human respiratory syncytial virus A, UniProt P28887).
T1 construct: Biochemical activity of 1 and 22 against full-length RSV L+P; Twin-Strep-tag (N); made in house; host or cells: Sf9 insect cells (baculovirus, pFastBac Dual)
The experiment in a line: Pyrophosphate luminescence detection assay, full-length RSV L+P. In kind it is biochemical. The note with it: for IC50: read-out: Biochemical IC50; for Emax: read-out: Biochemical Emax.

For series [1], the system named is rgRSV224 virus (RSV A2) in HeLa cells. The experiment in a line: HeLa cell rgRSV224 eGFP reporter viral proliferation assay. In kind it is cell-based. The following applies: human respiratory syncytial virus, RSV eGFP phenotypic assay in HeLa cells; for EC50: HeLa, 72 h, MOI 1, 72 h, n ≥ 2, read-out: Cellular EC50; for Emax: read-out: Cellular Emax. As to the method:
(§1) Compound serial dilutions (9 point, fourfold) were prepared in DMSO, and 200 nL was transferred to black, 384-well, clear-bottom microtiter plates (Corning, Amsterdam, The Netherlands) via acoustic drop ejection ([36], [50]). […] Then, 20 µL of a HeLa cell suspension (3,000 cells/well) was added with a Multidrop Combi, and cells were incubated at 37°C in a 5% CO2 atmosphere. After 72 h, GFP expression was quantified using an EnVision Multimode Plate Reader (Perkin Elmer, Zaventem, Belgium), and data were normalized to untreated and media-only (no virus) controls. Cytotoxicity was determined in parallel using the ATPlite kit (Perkin Elmer, Zaventem, Belgium). Luminescence was measured in white, 384-well microtiter plates (Corning) on a ViewLux uHTS Microplate Imager apparatus (PerkinElmer, Zaventem, Belgium), and cellular ATP content was quantified by normalizing to untreated and media-only (no cell) controls. […] Figures were prepared with GraphPad Prism.

Series [2] can be described thus: HeLa cytotoxicity assay (ATPlite). The note with it: human; for CC50 at 72 h: HeLa cells. How it is done: as §1
In the next series the test system is HeLa cells. The experiment in a line: HeLa cytotoxicity assay (ATPlite). The following applies: HeLa cells. How it is done:
as §1

The nature of series [3]: Metabolic stability in liver microsomes. The note with it: in vitro intrinsic clearance in human liver microsomes, n = 1.
[4] abbreviates: pyrophosphate luminescence detection assay, full-length RSV L+P, n ≥ 2.
[5] abbreviates: pyrophosphate luminescence detection assay.

T1 sequence (P03421 whole entry): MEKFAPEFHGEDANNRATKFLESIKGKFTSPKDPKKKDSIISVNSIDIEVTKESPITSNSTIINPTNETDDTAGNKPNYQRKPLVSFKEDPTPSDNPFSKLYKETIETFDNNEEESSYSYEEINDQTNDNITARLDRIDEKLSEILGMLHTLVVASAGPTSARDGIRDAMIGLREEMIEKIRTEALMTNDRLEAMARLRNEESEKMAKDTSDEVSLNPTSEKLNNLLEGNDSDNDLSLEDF
T1 sequence (P28887 whole entry): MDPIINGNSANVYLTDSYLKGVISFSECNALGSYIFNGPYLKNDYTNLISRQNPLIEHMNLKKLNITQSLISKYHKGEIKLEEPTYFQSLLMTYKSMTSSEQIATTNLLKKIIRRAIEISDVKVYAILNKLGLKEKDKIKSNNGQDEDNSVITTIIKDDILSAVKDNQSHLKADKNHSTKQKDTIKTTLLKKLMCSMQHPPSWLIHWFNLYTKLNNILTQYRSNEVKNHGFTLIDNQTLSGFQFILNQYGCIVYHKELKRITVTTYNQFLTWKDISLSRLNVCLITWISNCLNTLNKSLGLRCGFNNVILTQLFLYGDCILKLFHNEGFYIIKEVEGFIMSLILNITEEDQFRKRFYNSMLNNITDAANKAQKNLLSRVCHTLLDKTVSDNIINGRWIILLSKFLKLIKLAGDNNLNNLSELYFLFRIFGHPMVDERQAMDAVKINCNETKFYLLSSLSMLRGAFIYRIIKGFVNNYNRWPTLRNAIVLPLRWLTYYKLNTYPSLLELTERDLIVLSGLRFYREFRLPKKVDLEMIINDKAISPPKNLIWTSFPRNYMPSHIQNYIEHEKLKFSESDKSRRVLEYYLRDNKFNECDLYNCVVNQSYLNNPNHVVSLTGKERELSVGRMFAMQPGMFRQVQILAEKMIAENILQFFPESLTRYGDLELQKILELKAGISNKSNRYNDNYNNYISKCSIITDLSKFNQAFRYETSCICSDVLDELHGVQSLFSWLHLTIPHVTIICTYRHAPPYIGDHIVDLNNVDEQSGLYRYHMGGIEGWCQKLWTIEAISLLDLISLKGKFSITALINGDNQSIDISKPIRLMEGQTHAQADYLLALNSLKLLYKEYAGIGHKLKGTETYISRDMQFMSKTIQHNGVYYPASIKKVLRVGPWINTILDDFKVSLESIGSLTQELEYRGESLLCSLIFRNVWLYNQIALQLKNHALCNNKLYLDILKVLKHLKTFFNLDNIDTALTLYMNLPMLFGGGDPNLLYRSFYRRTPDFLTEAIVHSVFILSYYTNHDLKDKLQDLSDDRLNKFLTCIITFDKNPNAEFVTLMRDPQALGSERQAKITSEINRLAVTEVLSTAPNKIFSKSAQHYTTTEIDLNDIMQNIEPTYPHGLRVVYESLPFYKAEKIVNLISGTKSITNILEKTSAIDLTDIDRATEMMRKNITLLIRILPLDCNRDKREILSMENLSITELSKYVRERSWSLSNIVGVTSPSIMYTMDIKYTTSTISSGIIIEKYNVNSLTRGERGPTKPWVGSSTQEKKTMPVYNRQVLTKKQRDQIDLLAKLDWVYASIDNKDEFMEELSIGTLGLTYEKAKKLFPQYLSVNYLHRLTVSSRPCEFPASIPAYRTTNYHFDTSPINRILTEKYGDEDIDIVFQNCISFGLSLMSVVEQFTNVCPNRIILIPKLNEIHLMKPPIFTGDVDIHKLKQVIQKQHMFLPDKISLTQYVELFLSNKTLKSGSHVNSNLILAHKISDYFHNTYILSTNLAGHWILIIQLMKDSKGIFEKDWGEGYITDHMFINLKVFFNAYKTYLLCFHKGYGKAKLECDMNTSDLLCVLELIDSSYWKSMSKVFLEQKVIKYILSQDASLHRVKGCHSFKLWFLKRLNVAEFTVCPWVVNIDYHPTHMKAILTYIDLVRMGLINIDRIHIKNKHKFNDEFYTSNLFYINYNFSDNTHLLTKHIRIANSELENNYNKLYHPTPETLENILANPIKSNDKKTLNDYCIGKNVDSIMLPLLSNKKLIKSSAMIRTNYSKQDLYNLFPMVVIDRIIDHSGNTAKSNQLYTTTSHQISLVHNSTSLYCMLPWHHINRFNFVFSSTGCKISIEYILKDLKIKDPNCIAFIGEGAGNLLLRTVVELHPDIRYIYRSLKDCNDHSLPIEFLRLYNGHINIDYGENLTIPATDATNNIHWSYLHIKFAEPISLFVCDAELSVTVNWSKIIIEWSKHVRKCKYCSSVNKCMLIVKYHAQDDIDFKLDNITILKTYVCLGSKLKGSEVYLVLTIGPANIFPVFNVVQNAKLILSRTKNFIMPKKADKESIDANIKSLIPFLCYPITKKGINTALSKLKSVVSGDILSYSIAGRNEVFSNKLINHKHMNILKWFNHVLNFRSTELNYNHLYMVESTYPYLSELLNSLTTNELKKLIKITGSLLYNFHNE
Experimental for RSV L+P: Working solutions (3×) of RSV L+P (60 nM), substrate (30 µM each of GTP, CTP, UTP, 300 µM ATPαS [Jena Bioscience], 15 µM RNA template TrC-25), detection reagents (6 nM Luciferase, 900 µM luciferin, 3 U/µL ATP Sulfurylase [BioVision], 15 µM adenosine phosphosulfate [APS], 3 mM coenzyme A), were prepared in complete assay buffer. Compounds were dissolved in dimethyl sulfoxide (DMSO) and dispensed to white, 1536-well cyclic olefin copolymer (COC) plates (Corning, 9145BC) using an Echo Acoustic Liquid Handler (Beckman Coulter, San Jose, CA). Substrate (1 µL) and detection reagents (1 µL) were dispensed using a Multidrop Combi Dispenser (ThermoFisher, Waltham, MA), followed by enzyme (1 µL) to initiate the reaction. Final screening concentrations were 20 nM RSV L+P, 10 µM GTP/CTP/UTP, 100 µM ATPαS, 5 µM TrC-25, 2 nM Luciferase (Promega), 300 µM luciferin (Promega), 1 U/µL ATP sulfurylase, 5 µM APS, and 1 mM CoA. […] Luminescence was detected using the PHERAStar FSX (BMG Labtech, Ortenberg, Germany).

As for `N#Cc1ncc(N2CCC3(CC2)C(=O)Nc2ccc(F)cc23)cc1Cl` [Compound 19, 3-chloro-5-(5-fluoro-2-oxospiro[indoline-3,4'-piperidin]-1'-yl)picolinonitrile], on RSV L+P (setting [4]), the concentration for half-maximal inhibition (IC50) was 2.7 µM. Besides, the values for the Emax (on RSV L+P (setting [5]); in series [1]) were 106% and 99.9%, respectively. Further, the EC50 in series [1] worked out at 6.54 µM. Further, the CC50 at 72 h in series [2] is greater than 50 µM. Also, in the series on HeLa cells, the “Cytotoxicity Emax” value was found to be 52.2%. Further, in series [3], the “HLM CLint” value is 19 µL/min/mg microsomal protein.

Consider `N#Cc1ncc(N2CCC3(CC2)C(=O)N(CC2CC2)c2ccc(F)cc23)cc1Cl` [Compound 24, 3-chloro-5-(1-(cyclopropylmethyl)-5-fluoro-2-oxospiro[indoline-3,4'-piperidin]-1'-yl)picolinonitrile], for which, at RSV L+P (setting [5]), the Emax amounted to 89.4%. In series [1], the EC50 is 8.61 µM and the Emax turned out to be 78.3%. In series [2], this compound showed a CC50 at 72 h greater than 7.77 µM. Moreover, the “Cytotoxicity Emax” value in the series with HeLa cells was 51.8%. In addition, the “HLM CLint” value in series [3] is 46.3 µL/min/mg microsomal protein.

Consider `CN1C(=O)C2(CCN(c3cnc(N4CCOCC4)c(Cl)c3)CC2)c2cc(F)ccc21` [Compound 34, 1'-(5-chloro-6-morpholinopyridin-3-yl)-5-fluoro-1-methylspiro[indoline-3,4'-piperidin]-2-one], for which, on RSV L+P (setting [4]), the “Biochemical IC50” value is “inactive” and the IC50 is greater than 30.2 µM. Besides, the Emax at RSV L+P (setting [5]) is 69.5%. Moreover, in series [1], the EC50 is 30.3 µM and the Emax turned out to be 49.6%. In series [2], this compound returned a CC50 at 72 h greater than 50 µM. Besides, in the series with HeLa cells, the “Cytotoxicity Emax” value is listed as 41.6%. In addition, the “HLM CLint” value in series [3] is on record as 126 µL/min/mg microsomal protein.

Turning to `N#Cc1ncc(N2CCC3(CC2)C(=O)Nc2ccccc23)cc1Cl` [Compound 20, 3-chloro-5-(2-oxospiro[indoline-3,4'-piperidin]-1'-yl)picolinonitrile], on RSV L+P (compared to 1), the “loss in potency on replacing the bromo substituent with a proton” value came out at 10 fold. Moreover, the IC50 at RSV L+P (setting [4]) amounted to 6.63 µM. For the same compound, the Emax at RSV L+P (setting [5]) was determined as 84.7%; in series [1], 81.4%. In addition, the EC50 in series [1] was 8.34 µM. In addition, in series [2], the CC50 at 72 h is greater than 3.8 µM. The “Cytotoxicity Emax” value with HeLa cells was determined as 42.9%. The “HLM CLint” value in series [3] is 19.7 µL/min/mg microsomal protein.

Turning to `N#Cc1ncc(N2CCC3(CC2)C(=O)Nc2ccc(Cl)cc23)cc1Cl` [Compound 16, 3-chloro-5-(5-chloro-2-oxospiro[indoline-3,4'-piperidin]-1'-yl)picolinonitrile], the IC50 at RSV L+P (setting [4]) worked out at 1.03 µM. Further, the Emax on RSV L+P (setting [5]) stood at 108%. In series [1], the concentration giving a half-maximal response (EC50) stood at 8.07 µM and the Emax worked out at 94.2%. The same compound gave a CC50 at 72 h in series [2] greater than 13 µM. Further, the “Cytotoxicity Emax” value with HeLa cells was 45.3%. For the same compound, the “HLM CLint” value in series [3] is on record as <7.7 µL/min/mg microsomal protein.

Turning to `COc1ccc2c(c1)C1(CCN(c3cnc(C#N)c(Cl)c3)CC1)C(=O)N2` [Compound 18, 3-chloro-5-(5-methoxy-2-oxospiro[indoline-3,4'-piperidin]-1'-yl)picolinonitrile], on RSV L+P (setting [4]), the half-maximal inhibitory concentration (IC50) is 3.1 µM. Further, the values for the Emax (on RSV L+P (setting [5]); in series [1]) were 100% and 96.8%, respectively. For the same compound, the EC50 in series [1] is 15.9 µM. In series [2], this compound had a CC50 at 72 h of 24.4 µM. In addition, the “Cytotoxicity Emax” value in the series with HeLa cells is listed as 82.4%.

Consider `N#Cc1ncc(N2CCC3(CC2)C(=O)N(CCF)c2ccc(F)cc23)cc1Cl` [Compound 25, 3-chloro-5-(5-fluoro-1-(2-fluoroethyl)-2-oxospiro[indoline-3,4'-piperidin]-1'-yl)picolinonitrile], for which the IC50 at RSV L+P (setting [4]) was 2.86 µM. Moreover, the Emax turned out to be 90.7% on RSV L+P (setting [5]) and 80.3% in series [1]. Also, the concentration for a half-maximal effect (EC50) in series [1] was determined as 8.86 µM. The same compound displayed a CC50 at 72 h in series [2] greater than 23.4 µM. For the same compound, in the series with HeLa cells, the “Cytotoxicity Emax” value is listed as 66.5%. The “HLM CLint” value in series [3] is recorded as 14.1 µL/min/mg microsomal protein.

Turning to `CN1C(=O)C2(CCN(c3ccc(C#N)c(Cl)c3)CC2)c2cc(F)ccc21` [Compound 30], on RSV L+P (setting [4]), the IC50 worked out at 1.25 µM. In addition, the Emax on RSV L+P (setting [5]) is 100%. For the same compound, in series [1], the half-maximal effective concentration (EC50) worked out at 4.35 µM and the Emax worked out at 95.8%. This compound registered a CC50 in series [2] greater than 6.65 µM. In the series on HeLa cells, the “Cytotoxicity Emax” value is given as 58.0%. Moreover, in series [3], the “HLM CLint” value is 39.1 µL/min/mg microsomal protein.

Turning to `COc1cc(N2CCC3(CC2)C(=O)N(C)c2ccc(F)cc23)cnc1C#N` [Compound 31, 5-(5-fluoro-1-methyl-2-oxospiro[indoline-3,4'-piperidin]-1'-yl)-3-methoxypicolinonitrile], the concentration for half-maximal inhibition (IC50) on RSV L+P (setting [4]) came out at 2.98 µM. In addition, on RSV L+P (setting [5]), the Emax was 115%. In series [1], the EC50 amounted to 8.78 µM and the Emax is 98.6%. Also, the CC50 at 72 h in series [2] is greater than 22.7 µM. Moreover, the “Cytotoxicity Emax” value in the series on HeLa cells is listed as 37.6%. In series [3], the “HLM CLint” value was 20.5 µL/min/mg microsomal protein.

As for `Cc1ccc2c(c1)C1(CCN(c3cnc(C#N)c(Cl)c3)CC1)C(=O)N2` [Compound 17, 3-chloro-5-(5-methyl-2-oxospiro[indoline-3,4'-piperidin]-1'-yl)picolinonitrile], the IC50 on RSV L+P (setting [4]) was 1.75 µM. Besides, the Emax at RSV L+P (setting [5]) was 111%; in series [1], 55.1%. Moreover, the EC50 in series [1] turned out to be 10.9 µM. Besides, the CC50 at 72 h in series [2] was greater than 50 µM. Besides, the “Cytotoxicity Emax” value in the series with HeLa cells is reported as 8.6%. The “HLM CLint” value in series [3] is recorded as 123 µL/min/mg microsomal protein.

Consider `CN1C(=O)C2(CCN(c3cnc(C#N)c(Cl)c3)CC2)c2cc(F)ccc21` [Compound 23, 3-chloro-5-(5-fluoro-1-methyl-2-oxospiro[indoline-3,4'-piperidin]-1'-yl)picolinonitrile], for which the Emax on RSV L+P (setting [5]) stood at 103%. In series [1], the EC50 was determined as 3.67 µM and the Emax was found to be 93.3%. The same compound showed a CC50 at 72 h in series [2] greater than 3.74 µM. Moreover, in the series with HeLa cells, the “Cytotoxicity Emax” value was found to be 55.7%. In series [3], the “HLM CLint” value is 19 µL/min/mg microsomal protein.

As to `Cc1cc(N2CCC3(CC2)C(=O)N(C)c2ccc(F)cc23)cc(F)c1C#N` [Compound 32, 2-fluoro-4-(5-fluoro-1-methyl-2-oxospiro[indoline-3,4'-piperidin]-1'-yl)-6-methylbenzonitrile], the IC50 at RSV L+P (setting [4]) was 1.9 µM. The Emax at RSV L+P (setting [5]) was determined as 91.2%. For the same compound, in series [1], the 50% effective concentration (EC50) turned out to be 13.8 µM and the Emax is 92.6%. In series [2], this compound gave a CC50 at 72 h greater than 5.78 µM. For the same compound, the “Cytotoxicity Emax” value in the series with HeLa cells amounted to 50.9%. The “HLM CLint” value in series [3] was 64.8 µL/min/mg microsomal protein.

For the compound `CN1C(=O)C2(CCN(c3ccc(C#N)c(Cl)n3)CC2)c2cc(F)ccc21` [Compound 29, 2-chloro-6-(5-fluoro-1-methyl-2-oxospiro[indoline-3,4'-piperidin]-1'-yl)nicotinonitrile], the IC50 on RSV L+P (setting [4]) was 1.56 µM. Moreover, on RSV L+P (setting [5]), the Emax was 95.5%. Moreover, in series [1], the EC50 stood at 7.89 µM and the Emax amounted to 94.3%. Further, the CC50 at 72 h in series [2] is greater than 8.43 µM. Also, the “Cytotoxicity Emax” value with HeLa cells worked out at 66.9%. Besides, the “HLM CLint” value in series [3] is reported as 31.9 µL/min/mg microsomal protein.

As for `N#Cc1ncc(N2CCC3(CC2)C(=O)N(c2cccnc2)c2ccc(F)cc23)cc1Cl` [Compound 21, 3-chloro-5-(5-fluoro-2-oxo-1-(pyridin-3-yl)spiro[indoline-3,4'-piperidin]-1'-yl)picolinonitrile], the IC50 at RSV L+P (setting [4]) came to 0.8 µM. The Emax on RSV L+P (setting [5]) is 107%. Also, in series [1], the 50% effective concentration (EC50) came to 3.38 µM and the Emax is 95.8%. This compound gave a CC50 at 72 h in series [2] greater than 2.71 µM. For the same compound, the “Cytotoxicity Emax” value in the series with HeLa cells was 44.8%.
